Test results published in ChEMBL document CHEMBL2203284, “Synthesis and structure based optimization of 2-(4-phenoxybenzoyl)-5-hydroxyindole as a novel CaMKII inhibitor” (Bioorg Med Chem, 2012).

What was measured:
[1] = Inhibition of recombinant CaMK2 expressed in Sf9cells using autocamtide-2/CAM as substrate after 90 mins; conditions: sf9
[2] = Selectivity ratio of IC50 for PKCgamma to IC50 for recombinant CaMK2
[3] = Selectivity ratio of IC50 for MLCK to IC50 for recombinant CaMK2
[4] = Selectivity ratio of IC50 for p38alpha to IC50 for recombinant CaMK2
[5] = Selectivity ratio of IC50 for Akt1 to IC50 for recombinant CaMK2
[6] = Solubility of the compound in water at pH 7.4; assay type: physicochemical

`COc1ccc2[nH]c(C(=O)c3ccc(Oc4ccccc4)cc3)cc2c1` showed an IC50 [1] greater than 10 µM.
Work on `NCCOc1cccc2[nH]c(C(=O)c3ccc(Oc4ccccc4)cc3)cc12` yielded an IC50 [1] of 2.6 µM.
`O=C(c1ccc(Oc2ccccc2)cc1)c1cc2c(Br)c(O)ccc2[nH]1` gave an IC50 [1] of 0.04 µM, a Ratio IC50 [2] of 550 and a Ratio IC50 [3] of 12. It also gave a Ratio IC50 [4] of 115, a Ratio IC50 [5] of 1500 and a solubility [6] of less than 1 µg/mL.
Molecule `O=C(c1ccc(Oc2ccccc2)cc1)c1cc2c(Br)c(O)c(Br)cc2[nH]1` has an IC50 [1] of 0.012 µM, a Ratio IC50 [2] of 1250 and a Ratio IC50 [3] of 63. It also gave a Ratio IC50 [4] of 450, a Ratio IC50 [5] greater than 5000 and a solubility [6] of less than 1 µg/mL.
In the case of `O=C(c1ccc(Oc2ccccc2)cc1)c1cc2c(Cl)c(O)ccc2[nH]1`, the IC50 [1] is reported as 0.64 µM.
`O=C(c1ccc(Oc2ccccc2)cc1)c1cc2c(OCCN3CCCCC3)cccc2[nH]1` showed an IC50 [1] of 0.82 µM.
`CCNCCOc1cccc2[nH]c(C(=O)c3ccc(Oc4ccccc4)cc3)cc12` gave an IC50 [1] of 1.1 µM.
With `O=C(c1ccc(Oc2ccccc2)cc1)c1cc2c(OCCN3CCC(O)CC3)cccc2[nH]1` the IC50 [1] was 0.42 µM.
Work on `O=C(c1ccc(Oc2ccccc2)cc1)c1cc2cc(O)ccc2[nH]1` yielded an IC50 [1] of 0.61 µM, a Ratio IC50 [2] of 93 and a Ratio IC50 [3] of less than 1. The Ratio IC50 [4] was less than 1 and the Ratio IC50 [5] was 295.
Work on `Cc1c(O)ccc2[nH]c(C(=O)c3ccc(Oc4ccccc4)cc3)cc12` yielded an IC50 [1] of 1.3 µM.
In the case of `CCNCCOc1ccc2[nH]c(C(=O)c3ccc(Oc4ccccc4)cc3)cc2c1`, the IC50 [1] is reported as 1.5 µM.
For `CC(C)(Oc1ccc2[nH]c(C(=O)c3ccc(Oc4ccccc4)cc3)cc2c1)C(=O)O`, the IC50 [1] was 1.5 µM.
In the case of `O=C(O)COc1ccc2[nH]c(C(=O)c3ccc(Oc4ccccc4)cc3)cc2c1`, the IC50 [1] is reported as 0.51 µM.
Molecule `O=C(c1ccc(Oc2ccccc2)cc1)c1cc2c(OCCCN3CCCCC3)cccc2[nH]1` has an IC50 [1] of 0.8 µM.
`O=C(c1ccc(Oc2ccccc2)cc1)c1cc2c(OCCN3CCNCC3)cccc2[nH]1` gave an IC50 [1] of 0.27 µM.
Molecule `O=C(c1ccc(Oc2ccccc2)cc1)c1cc2c(Cl)c(O)c(Cl)cc2[nH]1` has an IC50 [1] of 0.061 µM and a solubility [6] of less than 1 µg/mL.
